Measurements taken from ChEMBL document CHEMBL5604062, “ASAP - ZIKV NS2B-NS3 protease fluorescence dose response” (2024).
Values joined by “and” are separate entries in the source; they are usually repeats but may differ in a detail not shown here. Equal values may be shown once.

What follows are compounds tested against Nonstructural protein 3 (Zika virus, UniProt A0A024AXB9) (assay: Functional biochemical assay to identify treatments for viral infectious disease that targets Zika NS2B-NS3 protease. Utilizing a direct enzyme activity measurement method, reading the fluorescence intensity is used to characterize the relative potency of inhibitors as IC50.).
Design: species or system PRVABC59

Sequence of Nonstructural protein 3 (A0A024AXB9 whole entry): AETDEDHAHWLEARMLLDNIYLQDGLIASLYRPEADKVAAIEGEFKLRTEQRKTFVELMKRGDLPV

| Compound | IC50 |
| --- | --- |
| CCC1([C@H](NC(=O)OCc2ccccc2)C(=O)Nc2cccc(CN)c2)CCCCC1 | > 99.5 µM |
| CCC1CCN(Cc2c[nH]c3ccccc23)CC1 | > 99.5 µM |
| Cc1cc(=O)c(C(=O)Nc2cccc(CN)c2)nn1-c1ccccc1C(F)(F)F | > 99.5 µM |
| O=C(O)CCc1ccc(NC(=O)c2cc(Cl)cc(C3CC3)c2)cc1 | > 99.5 µM |
| O=C(O)c1cc(Cl)ccc1NS(=O)(=O)c1ccc(-c2cccnc2)cc1 | > 99.5 µM |
| O=C(Nc1cc(Cl)cc(C(=O)NC[C@@]23CC[C@H](CNC2)C3)c1)OCc1ccccc1 | > 99.5 µM |
| CN(C)Cc1csc(NC(=O)c2cc(Cl)cc(NC(=O)OCc3ccccc3)c2)n1 | > 99.5 µM |
| Cc1cccc(CNc2ccc(Cl)cc2C(=O)Nc2cccc(CN)c2)n1 | > 99.5 µM |
| NCc1cccc(NC(=O)C[C@H](NC(=O)OCc2ccccc2)c2ccc(Cl)c(Br)c2)c1 | 20.7 µM and 18.8 µM and 15.9 µM and 15.5 µM |
| CCCOc1ccc2[nH]cc(CN3CCC(c4cscn4)CC3)c2c1 | > 99.5 µM |
| CN1CCC[C@H]1COc1cccc([C@@H](NC(=O)OCc2ccccc2)C(=O)Nc2cccc(CN)c2)c1 | > 99.5 µM |
| CCc1cc(C(=O)Nc2cccc(-c3nnn[nH]3)c2)nn1-c1ccccc1 | > 99.5 µM |
| O=C(O)c1cc(Cl)ccc1NCc1ccc(Oc2ccccc2Cl)cc1 | > 99.5 µM |
| CN(C)Cc1cc(NC(=O)[C@H](NC(=O)OCc2ccccc2)c2ccc(OCc3ccccc3)cc2)sn1 | > 99.5 µM |
| CCn1cc(C(=O)NC)nc(N2CC[C@@H](CO)C2)c1=O | > 99.5 µM |
| Cc1cnnc(C(=O)Nc2cccc(CN)c2)c1 | > 99.5 µM |
| Cc1cc(C=O)c(C)n1-c1cccc(C(=O)N2CCN(C)CC2)c1 | > 99.5 µM |
| CNC(=O)[C@H](Nc1ccccn1)c1cc(Cl)cc(CN)c1 | > 99.5 µM |
| NCc1cn(CCNC(=O)c2cc(Cl)cc(NC(=O)OCc3ccccc3)c2)nn1 | > 99.5 µM |
| CN(C)CCOc1cccc(CNC(=O)[C@@H](NC(=O)OCc2ccccc2)c2ccc(OCc3ccccc3)cc2)c1 | > 99.5 µM |
| CCn1c(=O)c(N2CC[C@H](c3ccccc3)C2)nc2ccccc21 | > 99.5 µM |
| C[C@H]1CN(Cc2ccccc2)C[C@@H](C(=O)Nc2cccc(CN)c2)O1 | > 99.5 µM |
| O=c1[nH]c2cccc(N3CCN(Cc4c[nH]c5ccccc45)CC3)c2[nH]1 | > 99.5 µM |

| Compound | IC50 |
| --- | --- |
| CCn1ccnc(N2CC(=O)[C@@H](c3c[nH]c4ccccc34)C2)c1=O | > 99.5 µM |
| O=C(O)c1cc(Cl)ccc1NS(=O)(=O)c1ccc(Br)cc1 | > 99.5 µM |
| CCn1c(=O)c(N2C[C@@H]3[C@H](C2)[C@H]3C(=O)OC)nc2ccccc21 | > 99.5 µM |
| CCCn1cc2c(C(=O)Nc3ccc4c(c3)CNC4)cc(Cl)cc2n1 | 0.067 µM and 0.036 µM |
| O=C(Nc1cc(Cl)cc(C(=O)Nc2ccc3c(c2)COC3)c1)OCc1ccccc1 | > 99.5 µM |
| CCCCCn1cc(C(=O)Nc2cccc(CN)c2)c2ccccc21 | 70.4 µM |
| NCc1cc(C(F)(F)F)cc(-c2ccc3[nH]c(C(=O)O)cc3c2)n1 | > 99.5 µM |
| CCc1cc(F)ccc1CC(=O)N1CCCc2cc(CCN)ccc21 | > 99.5 µM |
| Cc1ccc(-c2nc(NC(=O)[C@H](NC(=O)OCc3ccccc3)c3ccc(OCc4ccccc4)cc3)sc2CN(C)C)cc1 | > 99.5 µM |
| O=C(Nc1cc2c(c(C3=CCOCC3)c1)CNC2)c1cc(F)cc2[nH]ncc12 | 0.028 µM and 0.025 µM and 0.02 µM |
| COc1ccc(CNC(=O)[C@@H](NC(=O)OCc2ccccc2)c2ccc(OCc3ccccc3)cc2)cn1 | > 99.5 µM |
| CCc1sc(C(=O)Nc2cccc(-c3nnn[nH]3)c2)cc1C | > 99.5 µM |
| Cn1c(COc2ccc(S(=O)(=O)Nc3ccc(Cl)cc3C(=O)O)cc2)nnc1C1CC1 | > 99.5 µM |
| CCn1c(=O)c(N2CC[C@]3(CCNC3=O)C2)nc2ccccc21 | > 99.5 µM |
| NC1(c2cccc(NC(=O)c3cc(Cl)cc(NC(=O)OCc4ccccc4)c3)c2)CCC1 | > 99.5 µM |
| Clc1ccc2c(c1)ncn2Cc1ccc(-c2nn[nH]n2)cc1 | > 99.5 µM |
| CCn1nc(C)c(CN(C)Cc2ccc3c(c2)CCNCC3)c1C | > 99.5 µM |
| O=C(c1cc(Cl)cc2[nH]ncc12)N1CCC(C2CCNCC2)CC1 | > 99.5 µM |
| CC(C)(C)O[C@H]1CCCN(C(=O)Nc2ccc3c(c2)CNC3)C1 | > 25 µM |
| NCc1cccc(NC(=O)c2cc(C(F)(F)F)cnc2N2CCOCC2)c1 | > 99.5 µM |
| O=C(Nc1ccc2c(c1)CNC2)c1cc(Cl)cc2[nH]c(-c3cn[nH]c3)cc12 | > 25 µM |
| COC(=O)c1cc(Cl)ccc1NS(=O)(=O)c1ccc(Cl)nc1 | > 99.5 µM |
| C1=C(c2cccnc2)CN(Cc2c[nH]c3ccccc23)CC1 | > 99.5 µM |

| Compound | IC50 |
| --- | --- |
| NCc1cccc(NC(=O)[C@@]23C[C@@H](NC(=O)OCc4ccccc4)C[C@@H]2C3)c1 | > 99.5 µM |
| CCn1cc(-c2c[nH]c3ncccc23)nc(N2CC[C@@H](CO)C2)c1=O | > 99.5 µM |
| CCn1cc(-c2cn(C)nc2C(F)(F)F)nc(N2CC[C@@H](CO)C2)c1=O | > 99.5 µM |
| c1ccc2c(CN3CCC[C@H](c4c[nH]c5ccccc45)C3)c[nH]c2c1 | > 99.5 µM |
| CCn1ccnc(N2CCC(c3c[nH]c4ccccc34)CC2)c1=O | > 99.5 µM |
| NCc1cccc(NC(=O)C[C@H](CC(N)=O)c2ccc(F)cc2)c1 | > 99.5 µM |
| O=C(Nc1cc(-c2cccnc2)ccn1)c1nc(C2CC2)co1 | > 25 µM |
| Cc1nc(-c2ccc([C@@H](NC(=O)OCc3ccccc3)C(=O)Nc3cccc(CN)c3)cc2)cs1 | > 99.5 µM |
| O=C(Nc1cc(-c2cccnc2)ccn1)c1cc(C2CC2)no1 | > 25 µM |
| Cc1c(C(=O)Nc2cc(C(=O)N3CC(C(N)=O)C3)ccn2)cc(C2CC2)n1C | > 25 µM |
| CC(=O)Nc1cc(Br)cc(C(=O)Nc2ccc3c(c2)CNC3)c1 | 0.082 µM and 0.069 µM |
| Cc1c(C(=O)NCc2ccnc(OC3CCOCC3)c2)cc(C2CC2)n1C | > 25 µM |
| CN(Cc1cccnc1)Cc1c[nH]c2ccccc12 | > 99.5 µM |
| Cc1cc(C)c([C@@H](CC(=O)Nc2cccc(CN)c2)NC(=O)OCc2ccccc2)cc1C | 5.67 µM and 6.27 µM |
| CCn1c(=O)c(N2CC[C@H](N3CCN(C)CC3)C2)nc2ccccc21 | > 99.5 µM |
| [O-][S@@+](Cc1nc(-c2cccs2)no1)c1cccs1 | > 99.5 µM |
| NCc1cccc(NC(=O)[C@@H](NC(=O)OCc2ccccc2)c2ccc(F)cc2F)c1 | > 99.5 µM |
| CC[C@H]1CN2CCC[C@H]2CN1c1nc2ccccc2n(CC)c1=O | > 99.5 µM |
| NS(=O)(=O)c1nc(C(=O)N2CCc3c(CO)cccc32)n2ccccc12 | > 99.5 µM |
| NC[C@H]1OCCc2sc(C(=O)Nc3cc(-c4cccnc4)ccn3)cc21 | > 25 µM |
| CC(C)(C)OC(=O)N1C[C@@H](O)[C@H](c2c[nH]c3ccccc23)C1 | > 99.5 µM |
| O=C(O)c1c(F)cc(F)cc1NS(=O)(=O)c1ccc(Oc2ccccc2Cl)cc1 | > 99.5 µM |

Second part, the compound after the results:

| IC50 | Compound |
| --- | --- |
| 9.89 µM | c1ccc2sc(C3CCN(Cc4c[nH]c5ccccc45)CC3)nc2c1 |
| 86.2 µM | N#Cc1ccc(N2CCN(Cc3c[nH]c4ccccc34)CC2)cc1 |
| 0.188 µM | CCCn1ncc2c(C(=O)Nc3ccc4c(c3)CNC4)cc(Cl)cc21 |
| 0.359 µM | C=C[C@H]1NCc2cc(NC(=O)c3cc(F)cc4[nH]ncc34)ccc21 |
| 0.232 µM | O=C(NCC(F)F)[C@H](Nc1ccc2c(c1)CNC2)c1cc(Cl)ccc1Cl |
| > 25 µM | O=C(Nc1ccc2c(c1)CNC2)c1ccc2nc(O)sc2c1 |
| 14.3 µM | CC(C)c1nc2c(C(=O)Nc3cccc(CN)c3)cccc2[nH]1 |
| > 25 µM | O=C1Cc2c(cc(F)cc2C(=O)Nc2cc([C@H]3CCOC3)ccn2)N1 |
| 1.05 µM | O=C(Nc1ccc2c(c1)CNC2)c1cc(Cl)ccc1-n1cnnn1 |
| 4.8 µM | CNCc1cccc(NC(=O)c2cc(Cl)cc3[nH]ncc23)c1 |
| > 25 µM | O=C(O)c1cc2cc(-c3cc(Cl)cc4c3O[C@H](CO)C4)ccc2[nH]1 |
| 10.5 µM | NCCc1cccc(-c2cccc([C@@H](NC(=O)OCc3ccccc3)C(=O)Nc3cccc(CN)c3)c2)c1 |
| > 25 µM | Cc1c(C(=O)Nc2cc(C(=O)N3CC[C@H](CO)C3)ccn2)cc(C2CC2)n1C |
| > 25 µM | COc1ccc(OC)c([C@H]2CCCN2C(=O)Nc2ccc3c(c2)CNC3)c1 |
| 78.4 µM | NCc1cccc(NC(=O)c2cc3c(c(NC(=O)OCc4ccccc4)c2)OCC3)c1 |
| 30.3 µM | Cc1ccc2cccc(NC(=O)C3CCN(c4ccc(C=O)cc4)CC3)c2n1 |
| 1.83 µM | O=C(Nc1ccc2c(c1)CNC2)c1cccc(-c2cnco2)c1 |
| > 25 µM | NCCc1csc2cc(C(=O)Nc3cc([C@H]4CCOC4)ccn3)ccc12 |
| 0.276 µM | N#Cc1cc(Cl)cc(C(=O)Nc2ccc3c(c2)CNC3)c1 |

| IC50 | Compound |
| --- | --- |
| 93.3 µM | NCc1cccc(NC(=O)[C@H](NC(=O)OCc2ccccc2)c2cccc(C3=CCCOC3)c2)c1 |
| 0.256 µM | CNC(=O)[C@H](Nc1ccc2c(c1)CNC2)c1cc(Cl)cc2c1OCC2 |
| 26.9 µM | COCc1cc(Cl)cc(C(=O)Nc2cccc(CN)c2)c1 |
| 3.99 µM | CNC(=O)[C@H](Nc1cc(Cl)cc2[nH]ncc12)c1ccc2c(c1)CNC2 |
| 4.94 µM | NCc1ccc(NC(=O)c2cc(Cl)cc3[nH]ncc23)cc1F |
| 10.6 µM | Cc1cnn(-c2cc(C(=O)O)c(NS(=O)(=O)c3ccc(Oc4ccccc4Cl)cc3)cc2F)c1 |
| 1.89 µM | O=C(Nc1ccc2c(c1)CN[C@H]2c1ccccc1)c1cc(F)cc2[nH]ncc12 |
| 8.05 µM | C[C@H](C1CC1)n1ncc2c(C(=O)Nc3ccc4c(c3)CNC4)cc(C3CC3)nc21 |
| > 25 µM | O=C(Nc1ccc2c(c1)CNC2)c1cc2ncccc2s1 |
| 82.3 µM | CN1CCC(COc2ccc([C@@H](NC(=O)OCc3ccccc3)C(=O)Nc3cccc(CN)c3)cc2)CC1 |
| 52.4 µM | CC[C@H](Cc1nnn[nH]1)c1ccc(NC(=O)[C@H]2[C@H]3CCCCC[C@H]3[C@H]2NC(=O)OCc2ccccc2)cc1 |
| 1.17 µM | CN1CCc2c([nH]c3ccc(C(=O)Nc4ccc5c(c4)CNC5)cc23)C1=O |
| 33.1 µM | NCc1cccc(NC(=O)[C@H](NC(=O)c2ccccc2Cl)c2ccc(OCc3ccccc3)cc2)c1 |
| 1.03 µM | Clc1cc([C@H](C#Cc2ccccc2)Nc2ccc3c(c2)CNC3)c2cn[nH]c2c1 |
| 11.6 µM | NCc1cc(Br)cc([C@H]2C[C@@H]2c2cc(Cl)cc(NC(=O)OCc3ccccc3)c2)c1 |
| 6.63 µM | Cn1nc(C(=O)Nc2ccc3c(c2)CNC3)c2cc(Br)ccc21 |
| 10.9 µM | Cc1ccc(NC(=O)c2cc(Cl)cc(NC(=O)OCc3ccccc3)c2)cc1CN |
| 9.65 µM | C=C(C)c1cccc([C@@H](NC(=O)OCc2ccccc2)C(=O)Nc2cccc(CN)c2)c1 |
